Experimental data as given in publication PMC5333395, “Assessing histone demethylase inhibitors in cells: lessons learned” (Epigenetics & Chromatin, 2017).

Key:
Test in all cases: AlphaScreen in vitro demethylase assay
Format in all cases: biochemical
KDM4A = target: T1, KDM4A (Homo sapiens, UniProt O75164); conditions: IC50 ± SD (number of replicates)
T1 sequence (O75164 1-1064): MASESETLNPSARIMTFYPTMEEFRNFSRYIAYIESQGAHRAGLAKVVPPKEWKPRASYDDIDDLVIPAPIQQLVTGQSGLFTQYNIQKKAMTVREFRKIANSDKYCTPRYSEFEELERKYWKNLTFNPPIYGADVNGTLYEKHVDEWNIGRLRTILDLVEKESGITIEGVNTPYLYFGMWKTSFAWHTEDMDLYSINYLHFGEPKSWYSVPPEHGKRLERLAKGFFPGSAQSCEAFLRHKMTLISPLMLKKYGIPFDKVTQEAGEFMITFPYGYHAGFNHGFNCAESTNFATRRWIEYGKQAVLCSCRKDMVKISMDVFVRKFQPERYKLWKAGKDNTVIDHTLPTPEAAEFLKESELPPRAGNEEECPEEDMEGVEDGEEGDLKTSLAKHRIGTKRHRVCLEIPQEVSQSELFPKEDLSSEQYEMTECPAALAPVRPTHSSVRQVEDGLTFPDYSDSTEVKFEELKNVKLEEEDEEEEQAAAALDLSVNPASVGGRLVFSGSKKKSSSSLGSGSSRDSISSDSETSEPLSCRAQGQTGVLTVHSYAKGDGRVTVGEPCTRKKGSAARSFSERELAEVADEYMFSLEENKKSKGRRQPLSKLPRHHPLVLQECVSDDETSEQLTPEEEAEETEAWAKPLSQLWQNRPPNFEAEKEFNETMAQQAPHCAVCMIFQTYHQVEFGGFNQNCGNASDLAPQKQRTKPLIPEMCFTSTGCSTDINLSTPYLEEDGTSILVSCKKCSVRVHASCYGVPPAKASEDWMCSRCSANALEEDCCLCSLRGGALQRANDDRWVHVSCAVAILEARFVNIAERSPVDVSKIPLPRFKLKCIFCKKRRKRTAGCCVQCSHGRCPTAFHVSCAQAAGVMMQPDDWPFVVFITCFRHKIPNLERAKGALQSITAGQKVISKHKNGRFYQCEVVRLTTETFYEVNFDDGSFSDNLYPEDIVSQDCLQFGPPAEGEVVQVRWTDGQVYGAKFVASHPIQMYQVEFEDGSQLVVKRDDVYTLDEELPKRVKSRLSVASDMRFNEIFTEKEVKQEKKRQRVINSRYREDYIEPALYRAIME
Procedure: (§1) IC50 values were determined as previously described. The following amendments were made to the protocol for carrying out 2-OG competition assays.

KDM3A = target: T2, KDM3A (Homo sapiens, UniProt Q9Y4C1); conditions: IC50 ± SD (number of replicates)
T2 sequence (Q9Y4C1 1-1321): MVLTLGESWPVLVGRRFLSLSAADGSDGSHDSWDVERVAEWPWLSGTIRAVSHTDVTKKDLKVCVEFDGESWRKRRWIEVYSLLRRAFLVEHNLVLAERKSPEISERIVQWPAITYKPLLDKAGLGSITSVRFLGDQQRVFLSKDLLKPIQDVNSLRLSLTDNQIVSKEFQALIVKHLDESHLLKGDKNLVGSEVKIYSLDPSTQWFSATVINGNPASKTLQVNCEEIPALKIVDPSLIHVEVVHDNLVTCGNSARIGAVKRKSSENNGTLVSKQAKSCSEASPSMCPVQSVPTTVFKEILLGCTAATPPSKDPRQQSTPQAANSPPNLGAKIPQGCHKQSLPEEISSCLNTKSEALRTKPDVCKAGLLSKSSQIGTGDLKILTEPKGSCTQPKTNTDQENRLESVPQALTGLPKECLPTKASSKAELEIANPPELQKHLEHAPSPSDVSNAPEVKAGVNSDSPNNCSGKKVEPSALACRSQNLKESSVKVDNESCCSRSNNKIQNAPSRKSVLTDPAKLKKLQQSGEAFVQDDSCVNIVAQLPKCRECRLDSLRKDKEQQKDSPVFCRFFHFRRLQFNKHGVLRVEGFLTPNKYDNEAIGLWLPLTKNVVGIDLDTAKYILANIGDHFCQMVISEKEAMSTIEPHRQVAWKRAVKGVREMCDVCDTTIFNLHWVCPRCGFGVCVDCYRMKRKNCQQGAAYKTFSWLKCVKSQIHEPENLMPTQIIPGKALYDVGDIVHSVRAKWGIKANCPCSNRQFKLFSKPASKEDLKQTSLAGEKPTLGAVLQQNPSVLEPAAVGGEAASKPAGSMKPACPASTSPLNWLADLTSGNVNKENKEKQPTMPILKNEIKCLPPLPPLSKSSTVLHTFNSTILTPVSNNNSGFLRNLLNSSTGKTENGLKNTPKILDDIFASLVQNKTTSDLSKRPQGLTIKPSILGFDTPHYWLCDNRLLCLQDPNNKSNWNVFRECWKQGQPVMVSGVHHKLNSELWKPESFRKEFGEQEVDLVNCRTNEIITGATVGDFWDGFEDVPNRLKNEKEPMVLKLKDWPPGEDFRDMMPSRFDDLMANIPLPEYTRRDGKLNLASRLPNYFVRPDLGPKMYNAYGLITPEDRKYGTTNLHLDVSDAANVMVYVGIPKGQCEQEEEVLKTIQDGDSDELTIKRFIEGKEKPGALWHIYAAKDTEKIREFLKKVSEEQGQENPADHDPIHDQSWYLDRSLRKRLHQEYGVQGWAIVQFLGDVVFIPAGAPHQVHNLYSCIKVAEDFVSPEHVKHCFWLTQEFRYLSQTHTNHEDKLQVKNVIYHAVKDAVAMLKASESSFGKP
Procedure: as §1

KDM6B = KDM6B (Homo sapiens, UniProt O15054); conditions: AlphaScreen; IC50 ± SD (number of replicates); read-out: KDM6B IC50, in vitro
KDM6B, sequence (O15054 whole entry): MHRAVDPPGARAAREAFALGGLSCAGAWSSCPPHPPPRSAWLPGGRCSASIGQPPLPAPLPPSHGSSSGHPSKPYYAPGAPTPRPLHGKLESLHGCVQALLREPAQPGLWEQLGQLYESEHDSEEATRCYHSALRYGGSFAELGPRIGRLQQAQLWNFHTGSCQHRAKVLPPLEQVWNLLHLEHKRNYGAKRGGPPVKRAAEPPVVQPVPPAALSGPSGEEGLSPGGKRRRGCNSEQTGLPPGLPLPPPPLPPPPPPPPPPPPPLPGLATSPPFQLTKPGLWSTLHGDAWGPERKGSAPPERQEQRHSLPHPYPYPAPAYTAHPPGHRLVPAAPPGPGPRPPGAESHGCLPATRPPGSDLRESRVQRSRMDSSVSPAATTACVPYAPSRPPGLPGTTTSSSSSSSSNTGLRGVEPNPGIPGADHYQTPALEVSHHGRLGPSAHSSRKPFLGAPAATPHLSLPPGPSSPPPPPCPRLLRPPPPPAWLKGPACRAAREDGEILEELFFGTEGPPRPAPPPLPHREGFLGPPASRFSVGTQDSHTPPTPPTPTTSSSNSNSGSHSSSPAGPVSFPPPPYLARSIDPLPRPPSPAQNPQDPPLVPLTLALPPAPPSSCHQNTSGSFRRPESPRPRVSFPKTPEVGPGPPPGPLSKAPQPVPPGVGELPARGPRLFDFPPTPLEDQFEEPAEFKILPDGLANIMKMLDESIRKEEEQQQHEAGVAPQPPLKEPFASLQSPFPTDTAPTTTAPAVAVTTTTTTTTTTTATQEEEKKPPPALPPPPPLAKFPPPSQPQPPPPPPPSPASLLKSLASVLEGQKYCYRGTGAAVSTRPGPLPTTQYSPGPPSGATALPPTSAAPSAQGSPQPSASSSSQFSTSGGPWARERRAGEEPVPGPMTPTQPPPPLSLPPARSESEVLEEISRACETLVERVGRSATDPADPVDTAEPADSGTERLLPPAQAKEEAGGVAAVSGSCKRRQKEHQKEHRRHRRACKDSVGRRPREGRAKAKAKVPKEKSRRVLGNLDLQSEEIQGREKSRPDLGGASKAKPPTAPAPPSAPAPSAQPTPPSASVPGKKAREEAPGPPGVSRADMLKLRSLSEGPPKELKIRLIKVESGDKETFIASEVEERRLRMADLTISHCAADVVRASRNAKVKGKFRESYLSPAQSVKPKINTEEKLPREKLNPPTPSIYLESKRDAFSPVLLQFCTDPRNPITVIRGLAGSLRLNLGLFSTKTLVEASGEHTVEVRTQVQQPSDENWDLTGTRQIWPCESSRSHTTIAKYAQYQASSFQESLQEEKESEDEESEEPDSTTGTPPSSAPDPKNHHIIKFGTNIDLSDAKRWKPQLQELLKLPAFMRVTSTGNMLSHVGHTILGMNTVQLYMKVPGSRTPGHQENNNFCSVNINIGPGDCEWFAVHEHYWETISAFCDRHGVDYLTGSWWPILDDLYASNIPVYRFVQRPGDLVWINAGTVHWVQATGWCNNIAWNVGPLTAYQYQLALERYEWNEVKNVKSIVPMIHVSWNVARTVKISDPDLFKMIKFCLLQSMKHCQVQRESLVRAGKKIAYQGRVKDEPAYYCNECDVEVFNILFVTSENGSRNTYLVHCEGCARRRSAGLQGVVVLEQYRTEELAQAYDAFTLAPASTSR
Procedure: as §1

Compound	IC50 (KDM4A) [µM]	IC50 (KDM3A) [µM]	IC50 (KDM6B) [µM]
O=c1[nH]cnc2c(-n3cc(CCN4CCC(c5cccc(Cl)c5)CC4)cn3)cccc12 [CCT366293, 8-(4-(2-(4-(3-Chlorophenyl)piperidin-1-yl)ethyl)-1H-pyrazol-1-yl)quinazolin-4(3H)-one]	> 10		
CCN(CCN(C)C)C(=O)CNCc1cc(C(=O)O)ccn1 [KDOAM-20]	0.67 ± 0.23	1.2 ± 0.91	1.4 ± 0.45
CCOC(=O)c1ccnc(CNCC(=O)N(CC)CCN(C)C)c1 [KDOAM-21]	11 ± 4.5	2.6 ± 1.3	11 ± 4.6
CPI-455	31	> 100	> 100
